We go through two compounds from paper PMC9287337 (Scientific Reports, 2022).

Experiment [1] deals with p-Akt cytoplasmic localization. Kind of experiment: Immunofluorescent labeling of p-Akt. Type of experiment: cell-based, mouse. Conditions: 1 µM, 15 min. Here is the method:
(§1) To ascertain whether these novel indolyl-benzimidazole compounds can also activate non-canonical BMP-related pathways, stimulation of the PI3K/Akt pathway was assessed by first monitoring changes in the level of p-Akt in response to SY-LB-35 and SY-LB-57.

The subject of experiment [2] is p-Akt (Akt phosphorylation). Kind of experiment: Western blot of p-Akt normalized to total Akt. Type of experiment: cell-based. Conditions: Mus musculus, 0.25 h, 15 min, read-out: p-Akt level, percent of control. Here is the method:
as §1
(§2) C2C12 cells (3 mL) were seeded into 35 mm dishes at 7.5 × 10^4 cells/mL in complete growth medium, incubated to reach 80% confluence and serum-starved for 16–18 h. […] Thereafter, the cultures were washed with ice-cold 1X TBS for 2 min. Lysis Buffer (Cell Signaling Technology, Danvers, MA, USA) supplemented with 1 mM PMSF (phenylmethylsulphonyl fluoride) was added to the cultures and whole cell lysates were prepared.
(§3) Laemmli sample buffer (4X) was added to the whole cell lysates (20 µg) to a final concentration of 1X and heated at 100 °C for 5 min. The samples were immediately cooled on ice for 5 min and centrifuged at 9500 rpm for 2 min at RT. The samples and the Precision Plus Protein Standard (5 µL; Bio-Rad, Hercules, CA, USA) were loaded on 12% SDS polyacrylamide gels. Protein was separated using the Bio-Rad Mini Protean II Gel Electrophoresis System at 135 V. Meanwhile, 0.2 µm nitrocellulose membranes were pre-incubated in cold 1X Transfer Buffer (10 mM Tris/2.5 mM glycine/20% methanol) for at least 30 min. Next, the separated proteins were transferred at 100 V onto the pre-equilibrated nitrocellulose membranes for 1 h in Transfer Buffer, followed by blocking in 5% BSA/0.1% Tween 20/1X TBS for 30 min. The membranes were incubated overnight at 4 °C with the desired primary rabbit monoclonal antibody (p-Smad1/5(S463/465)/9(S465/467), Smad1 (D5907) XP®, p-Akt (Ser473) (D9E) XP®, or Akt (pan) (C67E7), p-SAPK/JNK (Thr183/Tyr185), SAPK/JNK, β-actin (Cell Signaling Technologies, Danvers, MA, USA)) or rabbit polyclonal antibody (phospho-PI3 Kinase p85 (Tyr458)/p55 (Tyr199) antibody (Cell Signaling Technologies, Danvers, MA, USA), p-p38 MAPK, p38 MAPK, p-ERK1, ERK1/2) (Abclonal, Woburn, MA, USA)) in Antibody Dilution Buffer (1% BSA/0.1% Tween 20/1X TBS) and then washed with 1X TBST (0.1% Tween 20/1X TBS) three times for 15 min. HRP-conjugated Goat Anti-Rabbit IgG secondary antibody (Santa Cruz Biotechnology, Inc., Dallas, TX, USA) in Antibody Dilution Buffer was added to the membranes for 1 h at RT followed by three 15-min washes with 1X TBST. Finally, the blots were developed using SuperSignal ™ West Femto HRP Substrate solutions (Thermo Scientific, Rockford, IL, USA) and analysed using the Omega Lum™ G Imaging System (San Francisco, CA, USA). Quantification of chemiluminescent signals was carried out using ImageJ (Image Processing and Analysis in Java 1.8.0_112).

The test system of experiment [3] is p-PI3K (PI3K phosphorylation). Kind of experiment: Western blot of p-PI3K normalized to β-actin. Type of experiment: cell-based, mouse. Conditions: 15 min; for activity at 0.01 µM / activity at 0.1 µM / activity at 1 µM / activity at 10 µM: Mus musculus, 0.25 h, read-out: p-PI3K level, percent of control; for Increase in level of PI3K phosphorylation: all concentrations tested 0.01–10 µM. Here is the method:
To directly assess the activation of the PI3K enzyme, Western blot analysis was carried out on C2C12 cell whole cell lysates after a 15-min stimulation with 0.01–10 µM SY-LB-35 or SY-LB-57.
as §2, §3

Another experiment relates to p-ERK. Kind of experiment: Western blot of p-ERK. Type of experiment: cell-based, mouse. Conditions: 0.01–10 µM, 15 min. Here is the method:
(§4) Whole cell lysates were prepared from the treated cultures for Western blot analysis.
as §2
(§5) Laemmli sample buffer (4X) was added to the whole cell lysates (20 µg) to a final concentration of 1X and heated at 100 °C for 5 min. The samples were immediately cooled on ice for 5 min and centrifuged at 9500 rpm for 2 min at RT. The samples and the Precision Plus Protein Standard (5 µL; Bio-Rad, Hercules, CA, USA) were loaded on 12% SDS polyacrylamide gels. […] Finally, the blots were developed using SuperSignal ™ West Femto HRP Substrate solutions (Thermo Scientific, Rockford, IL, USA) and analysed using the Omega Lum™ G Imaging System (San Francisco, CA, USA). Quantification of chemiluminescent signals was carried out using ImageJ (Image Processing and Analysis in Java 1.8.0_112).

For experiment [4], the system named is p-Smad1/5/8 (Smad phosphorylation). Kind of experiment: Western blot of p-Smad normalized to total Smad. Type of experiment: cell-based. Conditions: Mus musculus, 0.5 h, 30 min, read-out: p-Smad level, percent of control. Here is the method: To investigate whether the new indolyl-benzimidazole compounds activate BMP receptor-dependent signaling pathways, the levels of p-Smad in serum-starved C2C12 cells, treated for 30 min with SY-LB-35 and SY-LB-57, were assessed by Western blot analysis. Whole cell lysates of treated C2C12 cells were probed for p-Smad using phospho-specific anti-Smad antibodies. p-Smad levels were normalized against total Smad levels.
as §2, §3

The test system of a further experiment is p-JNK. Kind of experiment: Western blot of p-JNK. Type of experiment: cell-based, mouse. Conditions: 0.01–10 µM, 15 min. Here is the method: as §4, §2, §5
The subject of a further experiment is PI3K enzyme. Kind of experiment: PI3K ELISA on PI3K immunoprecipitated from treated cells. Type of experiment: cell-based, mouse. Conditions: 10 µM, 15 min; for Amount of PIP3 produced by PI3K enzyme: control 0.61 pmol. Here is the method:
PI3K enzyme was immunoprecipitated and processed in a PI3K ELISA (Fig. 7B). […] The enzyme activity is expressed as the amount of product (PIP3) generated in each sample by the PI3K enzyme per minute of reaction.
C2C12 cells were seeded in 35-mm dishes at 7 × 10^4 cells/mL and incubated at 37 °C in 5% CO2 to reach 80% confluency. […] Cells (~ 10^6) per treatment were collected to prepare whole cell lysates followed by exposure to three freeze/thaw cycles in liquid nitrogen. The samples were centrifuged and PI3K enzyme was immunoprecipitated with a mouse monoclonal anti-PI3K p55 γ antibody ((E-9), Santa Cruz Biotechnology, Dallas, TX, USA) for 1 h at 4 °C with gentle rocking and the immune complexes were collected overnight on a rocking platform at 4 °C with Dynabeads™ Protein A (Life Technologies, Carlsbad, CA, USA). The next day, the immunoprecipitated PI3K enzyme was collected by centrifugation processed for a PI3K ELISA (Echelon Biosciences, Salt Lake, City, UT, USA) according to the manufacturer’s instructions. Standard solutions of PIP3 (0, 0.22, 0.67, 2, 6, 18, and 54 pmol) were added to kinase reactions using recombinant PI3K enzyme (Echelon Biosciences, Salt Lake, City, UT, USA) and used to generate a standard curve for production of PIP3. The optical density of the PIP3 standards and the reactions containing immunoprecipitated PI3K from treated samples was measured at 450 nm.

For the compound `Oc1ccc2[nH]c(-c3nc4ccccc4[nH]3)cc2c1` [SY-LB-35], in experiment [1], the p-Akt immunofluorescent labeling result was “robust, punctate, cytoplasmic p-Akt labeling”. Further, in experiment [2], the activity at 0.01 µM stood at 945% and the activity at 10 µM was determined as 766%. Also, the activity at 0.1 µM in experiment [2] (0.1 µM) worked out at 826%. Further, the activity at 1 µM in experiment [2] (1 µM) came to 887%. In experiment [3], the activity at 0.01 µM came to 431%, the activity at 0.1 µM worked out at 434%, the activity at 1 µM came out at 492% and the activity at 10 µM turned out to be 484%. For the same compound, the “Increase in level of PI3K phosphorylation” value in experiment [3] was more than 300 % increase. In addition, in the experiment on p-ERK, the p-ERK level result is “stimulated increases”. Besides, in experiment [4], the activity at 0.01 µM was 150%, the activity at 0.1 µM is 170%, the activity at 1 µM is 282% and the activity at 10 µM was 188%. Also, the p-JNK level entry with p-JNK is “stimulated increases”. Moreover, in the experiment with PI3K enzyme, the “PIP3 produced, higher compared to control untreated cells” value was 26% and the “Amount of PIP3 produced by PI3K enzyme” value worked out at 0.77 pmol.

With `COc1ccc2[nH]c(-c3nc4ccccc4[nH]3)cc2c1` [SY-LB-57], the p-Akt immunofluorescent labeling result in experiment [1] is “robust, punctate, cytoplasmic p-Akt labeling”. In addition, in experiment [2], the activity at 0.01 µM is 827% and the activity at 10 µM was 995%. Moreover, in experiment [3], the activity at 0.01 µM was determined as 443%, the activity at 0.1 µM was 404%, the activity at 1 µM is 471% and the activity at 10 µM was 451%. The “Increase in level of PI3K phosphorylation” value in experiment [3] is given as more than 300 % increase. Besides, in the experiment with p-ERK, the p-ERK level entry is “stimulated increases”. Also, in experiment [4], the activity at 0.01 µM stood at 234%, the activity at 0.1 µM was 316%, the activity at 1 µM was 276% and the activity at 10 µM turned out to be 357%. The p-JNK level result with p-JNK is listed as “stimulated increases”. Also, in the experiment with PI3K enzyme, the “PIP3 produced, higher compared to control untreated cells” value is on record as 26% and the “Amount of PIP3 produced by PI3K enzyme” value was 0.77 pmol.
